Measured values reported in US20240309015A1, “Methods for the Treatment of Fibrotic Disease” (SHY Therapeutics, LLC, priority 2021, published 2024).

Assays:
[1] = tested on: KRas wild type; test: Ras GTP Binding Domain Inhibition Assay, KRas wild type; conditions: at 20 μM; for KRas wild type + SOS: % inh.: with SOS; for KRas wild type: % inh.: without SOS
Procedure, shortened: (§1)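 Ni-plate-captured His-tagged GTPase (10-30 μg/mL, o/n 4° C); cpd 20 μM or serial dilution (IC50), 1% DMSO, 3 h RT; optional Sos 556-1049 His-tag (10-30 μg/mL) last hour. Cy3- or Cy5-GTP 100 nM, 45 min RT, 3× wash, fluorescence read.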

[2] = tested on: IL-6; test: Mouse IL6 Quantification Assay (LPS-stimulated RAW 264.7); format: cell-based; set-up: dose or concentration left out as unconfirmed; conditions: RAW264.7, ELISA, read-out: IL-6: % inh.
[3] = tested on: Smad2/3 phosphorylation; test: Phospho-Smad2/3 Inhibition Assay in PANC-1; format: cell-based; conditions: Homo sapiens; 10 μM compound, 3 h; TGF-b1 stimulated PANC-1; western blot; read-out: % inh of Smad2/3 phosphorylation in PANC-1
Procedure: Cell lines: Human tumor-derived pancreatic cancer cell line Panc-1 and mouse muscle myoblast C2C12 were purchased from American Type Culture Collection and grown in complete DMEM-High Glucose, supplemented with penicillin (100 U/mL), streptomycin (100 μg/mL), and 10% heat-inactivated FBS at 37° C. in a humidified incubator with 5% CO2.
Method: Cells were plated at 350000 cells/well density in a 12-well plate, allowed 3 hours to adhere to the plate, then starved in the appropriate medium in the presence of 0.5% FBS overnight. The small molecules to be tested were added to the cells in the final concentration of 10 μM in the presence of 0.3% DMSO for 3 hours incubation at 37° C. For IC50 value determination, serial dilutions of compounds were added to cells under the same conditions. Next, Panc-1 cells were stimulated with 10 ng/ml TGF-b1 for 1 hour, and C2C12 cells were stimulated with 10 ng/ml TGF-b1 for 20 minutes (recombinant human TGF-b1, R&D Systems). After stimulation cells were lysed with lysis buffer containing 1% Triton X-100, EDTA, and Halt™ Protease & Phosphatase Inhibitor Cocktail (Thermo Scientific). Protein concentration was assessed by BCA protein assay (Thermo Scientific). Phosphorylation level of Smad2/Smad3 was determined by western blot.
Western blot protocol: Equal amounts of protein (15-50 μg) were separated by SDS-PAGE and transferred to nitrocellulose membranes (Invitrogen by Thermo Fisher Scientific). The membrane was stained with Ponceau S Stain (Boston BioProducts) to verify uniform protein loading. Membranes were blocked with 10% milk and phosphorylation levels of Smad2/Smad3 were assessed by incubating overnight at 4° C. with the following antibodies: Phospho-Smad2 (Ser465/467) and Phosph-Smad3 (Ser423/425), both from Cell Signaling Technology. Then the membranes were incubated with HRP-conjugated secondary antibody (Jackson Immunoresearch, West Grove, PA). Bands were incubated in Amersham ECL Prime Western Blotting Detection Reagent (GE Healthcare) and visualized using the ChemiDoc MP imaging system (Bio-Rad).

[4] = tested on: Rho-A; test: Ras GTP Binding Domain Inhibition Assay, Rho-A; conditions: at 20 μM; without SOS
Procedure, shortened: as §1

[5] = tested on: KRas G12D mutant; test: Ras GTP Binding Domain Inhibition Assay, KRas G12D mutant; conditions: at 20 μM; for KRas G12D mutant + SOS: % inh.: with SOS; for KRas G12D mutant: % inh.: without SOS
Procedure, shortened: as §1

[6] = tested on: TNFα; test: Mouse TNF Alpha Quantification Assay (LPS-stimulated RAW 264.7); format: cell-based; set-up: dose or concentration left out as unconfirmed; conditions: RAW264.7, ELISA, read-out: TNFα: % inh.
[7] = tested on: KRas G12C mutant; test: Ras GTP Binding Domain Inhibition Assay, KRas G12C mutant; conditions: at 20 μM; for KRas G12C mutant + SOS: % inh.: with SOS; for KRas G12C mutant: % inh.: without SOS
Procedure, shortened: as §1

KRas wild type + SOS: % inh. [1]	KRas wild type: % inh. [1]	Rho-A: % inh. [4]	KRas G12D mutant + SOS: % inh. ([5]; Table 7)	KRas G12D mutant + SOS: % inh. ([5]; Table 8)	KRas G12D mutant: % inh. ([5]; Table 7)	KRas G12D mutant: % inh. ([5]; Table 8)	KRas G12C mutant + SOS: % inh. [7]	KRas G12C mutant: % inh. [7]	SMILES	inhibition [2]	inhibition at 10 µM [3]	inhibition [6]
D (D = 76-100% inhibition)	D (D = 76-100% inhibition)	D (D = 76-100% inhibition)	C (C = 46-75% inhibition)	C (C = 46-75% inhibition)	B (B = 26-45% inhibition)	B (B = 26-45% inhibition)	D (D = 76-100% inhibition)	C (C = 46-75% inhibition)	COc1cc(Nc2nc(-c3nccn3C)nc3sc(-c4ccn(C(C)C)n4)c(C)c23)ncn1 [Compound 19, 6-(1-Isopropyl-1H-pyrazol-3-yl)-N-(6-methoxypyrimidin-4-yl)-5-methyl-2-(1-methyl-1H-imidazol-2-yl)thieno[2,3-d]pyrimidin-4-amine]	76 to 100%	76 to 100%	76 to 100%
D (D = 76-100% inhibition)	D (D = 76-100% inhibition)	D (D = 76-100% inhibition)	D (D = 76-100% inhibition)	D (D = 76-100% inhibition)	D (D = 76-100% inhibition)	D (D = 76-100% inhibition)	D (D = 76-100% inhibition)	D (D = 76-100% inhibition)	Cc1c(-c2ccn(C(C)C)n2)sc2nc(-c3nccn3C)nc(NCCN3CCOCC3)c12 [Compound 22, 6-(1-Isopropyl-1H-pyrazol-3-yl)-5-methyl-2-(1-methyl-1H-imidazol-2-yl)-N-(2-morpholinoethyl)thieno[2,3-d]pyrimidin-4-amine]	76 to 100%	0%	1 to 25%
D (D = 76-100% inhibition)	D (D = 76-100% inhibition)	C (C = 46-75% inhibition)	D (D = 76-100% inhibition)	D (D = 76-100% inhibition)	D (D = 76-100% inhibition)	D (D = 76-100% inhibition)	D (D = 76-100% inhibition)	C (C = 46-75% inhibition)	Cc1c(-c2ccn(C(C)C)n2)sc2nc(-c3nccn3C)nc(NCCN3CCS(=O)(=O)CC3)c12 [Compound 23, 4-(2-((6-(1-Isopropyl-1H-pyrazol-3-yl)-5-methyl-2-(1-methyl-1H-imidazol-2-yl)thieno[2,3-d]pyrimidin-4-yl)amino)ethyl)thiomorpholine 1,1-dioxide]	46 to 75%	0%	0%
D (D = 76-100% inhibition)	D (D = 76-100% inhibition)	D (D = 76-100% inhibition)	C (C = 46-75% inhibition)	C (C = 46-75% inhibition)	C (C = 46-75% inhibition)	C (C = 46-75% inhibition)	D (D = 76-100% inhibition)	C (C = 46-75% inhibition)	COCCn1c(-c2nccn2C)nc2sc(-c3ccn(C(C)C)n3)c(C)c2c1=O [Compound 29, 6-(1-Isopropyl-1H-pyrazol-3-yl)-3-(2-methoxyethyl)-5-methyl-2-(1-methyl-1H-imidazol-2-yl)thieno[2,3-d]pyrimidin-4(3H)-one]	76 to 100%	0%	76 to 100%
0 (0 = 0% inhibition)	A (A = 1-25% inhibition)	0 (0 = 0% inhibition)	0 (0 = 0% inhibition)	0 (0 = 0% inhibition)	0 (0 = 0% inhibition)	0 (0 = 0% inhibition)	0 (0 = 0% inhibition)	A (A = 1-25% inhibition)	COCCOc1nc(-c2nccn2C)nc2sc(-c3ccn(C(C)C)n3)c(C)c12 [Compound 30, 6-(1-Isopropyl-1H-pyrazol-3-yl)-4-(2-methoxyethoxy)-5-methyl-2-(1-methyl-1H-imidazol-2-yl)thieno[2,3-d]pyrimidine]	0%	0%	0%
A (A = 1-25% inhibition)	A (A = 1-25% inhibition)	0 (0 = 0% inhibition)	0 (0 = 0% inhibition)	0 (0 = 0% inhibition)	0 (0 = 0% inhibition)	0 (0 = 0% inhibition)	0 (0 = 0% inhibition)	0 (0 = 0% inhibition)	COCCCn1c(-c2nccn2C)nc2sc(-c3ccn(C(C)C)n3)c(C)c2c1=O [Compound 31, 6-(1-Isopropyl-1H-pyrazol-3-yl)-3-(3-methoxypropyl)-5-methyl-2-(1-methyl-1H-imidazol-2-yl)thieno[2,3-d]pyrimidin-4(3H)-one]	46 to 75%	0%	0%
D (D = 76-100% inhibition)	D (D = 76-100% inhibition)	D (D = 76-100% inhibition)	C (C = 46-75% inhibition)	C (C = 46-75% inhibition)	C (C = 46-75% inhibition)	C (C = 46-75% inhibition)	C (C = 46-75% inhibition)	C (C = 46-75% inhibition)	COCCCOc1nc(-c2nccn2C)nc2sc(-c3ccn(C(C)C)n3)c(C)c12 [Compound 32, 6-(1-Isopropyl-1H-pyrazol-3-yl)-4-(3-methoxypropoxy)-5-methyl-2-(1-methyl-1H-imidazol-2-yl)thieno[2,3-d]pyrimidine]	76 to 100%	0%	76 to 100%
A (A = 1-25% inhibition)	0 (0 = 0% inhibition)	0 (0 = 0% inhibition)	0 (0 = 0% inhibition)	0 (0 = 0% inhibition)	0 (0 = 0% inhibition)	0 (0 = 0% inhibition)	A (A = 1-25% inhibition)	0 (0 = 0% inhibition)	COCCCCn1c(-c2nccn2C)nc2sc(-c3ccn(C(C)C)n3)c(C)c2c1=O [Compound 33, 6-(1-Isopropyl-1H-pyrazol-3-yl)-3-(4-methoxybutyl)-5-methyl-2-(1-methyl-1H-imidazol-2-yl)thieno[2,3-d]pyrimidin-4(3H)-one]	46 to 75%	0%	0%

SMILES	KRas wild type + SOS: % inh. [1]	KRas wild type: % inh. [1]	Rho-A: % inh. [4]	KRas G12D mutant + SOS: % inh. ([5]; Table 7)	KRas G12D mutant + SOS: % inh. ([5]; Table 8)	KRas G12D mutant: % inh. ([5]; Table 7)	KRas G12D mutant: % inh. ([5]; Table 8)	KRas G12C mutant + SOS: % inh. [7]	KRas G12C mutant: % inh. [7]	inhibition [2]	inhibition at 10 µM [3]	inhibition [6]
COCCCCOc1nc(-c2nccn2C)nc2sc(-c3ccn(C(C)C)n3)c(C)c12 [Compound 34, 6-(1-Isopropyl-1H-pyrazol-3-yl)-4-(4-methoxybutoxy)-5-methyl-2-(1-methyl-1H-imidazol-2-yl)thieno[2,3-d]pyrimidine]	0 (0 = 0% inhibition)	A (A = 1-25% inhibition)	0 (0 = 0% inhibition)	0 (0 = 0% inhibition)	0 (0 = 0% inhibition)	A (A = 1-25% inhibition)	A (A = 1-25% inhibition)	A (A = 1-25% inhibition)	0 (0 = 0% inhibition)	76 to 100%	0%	0%
